According to PMC11099041, “Tissue distribution and retention drives efficacy of rapidly clearing VHL-based PROTACs” (Communications Medicine, 2024):

What was measured:
[1] = rat, in vivo, iv, 4 mg/kg
Text: Male Sprague Dawley rats, intact or bile-cannulated, were from Envigo RMS, Inc. The animals were acclimated to study conditions for five days prior to dose administration. During acclimation, animals were individually housed in suspended, stainless steel, wire-mesh cages. During the test period, animals were placed in Nalgene cages designed for the collection of urine, feces, and bile. Certified Rodent Diet #2016C or 2016CM (Envigo RMS, Inc.) were provided ad libitum. Water was provided fresh daily. Environmental controls for the animal room were set to maintain a temperature of 20-26 °C, a relative humidity of 50 ± 20%, and a 12-hour light/12-hour dark cycle. […] The vehicle for the IV dose was 20% 2-hydroxypropyl-β-cyclodextrin (HP-β-CD) in 50 mM sodium acetate buffer, pH 4.0. […] The supernatant was removed, and the formulation appeared to be a very slight yellow solution. Stability was checked by HPLC analysis of pre- and post-dose aliquots. Animals were not fasted. The actual amount administered was determined by weighing the dose syringe before and after dose administration. The IV dose of 4 mg/kg was administered via a tail vein. For QWBA rats, one animal/time point was prepared for QWBA at approximately 0.25, 1, 4, 8, 24, 48, 168, and 336 hours. […] Blood was maintained on wet ice until being aliquoted for radioanalysis and centrifuged to obtain plasma. […] Each carcass was drained, blotted dry, placed into an appropriately labeled bag, and placed on dry ice or stored at ~-70 °C for at least 2 hours. The frozen carcasses were embedded in chilled carboxymethylcellulose and frozen into blocks. Embedded carcasses were stored at ~-20 °C in preparation for autoradiographic analysis. The samples were stored at -70 °C before analysis. […] All samples were analyzed for radioactivity in PerkinElmer Model 2910TR liquid scintillation counters for at least 5 min or 100,000 counts. Each sample was homogenized or mixed, as applicable, before radioanalysis in duplicate within 10% of the mean value. Scintillation counting data were automatically corrected for counting efficiency using the external standardization technique and an instrument-stored quench curve generated from a series of sealed quenched standards. […] The samples were allowed to sit at least overnight to allow any foaming to dissipate. Ultima Gold XR scintillation cocktail was added, and the samples were shaken and analyzed by liquid scintillation counting (LSC). Plasma was also analyzed by LSC. The urine, bile, cage rinse, and cage wash samples were mixed by shaking, and duplicate weighed aliquots were analyzed directly by LSC. The mean time concentration profile was generated for each group, and an overall AUC was then calculated with these sparse samples of rats and mice. […] The following parameters were estimated whenever possible: C0, Back-extrapolated concentration at time 0; Cmax, Maximum observed concentration; Tmax, Time of maximum observed concentration; AUC0-t, Area under the concentration-time curve from hour 0 to the last measurable concentration, estimated by the linear trapezoidal rule; AUC0-336, Area under the concentration-time curve from hour 0 to hour 336, estimated by the linear trapezoidal rule; DN AUC0-336, Dose normalized AUC0-336, calculated as AUC0-336/dose level; AUC0-∞, Area under the concentration-time curve from hour 0 to infinity (Day 1 only), calculated as follows: AUC0-∞ = AUC0-t + Ct/λz, where Ct is the last measurable concentration and λz is the elimination rate constant; t1/2, Elimination half-life, determined by ln(2)/λz; CL, Clearance, calculated as dose/AUC0-inf; Vd, Volume of distribution based on the terminal phase, calculated as: dose/(λz × AUC0-∞) Nominal doses and sampling times were used. […] Embedded zeros were excluded from kinetic analysis.

[2] = Protein binding by equilibrium dialysis (plasma, tissue homogenates, DPBS); type: in vitro ADME, rat
Protocol: Control plasma was purchased from BioIVT, Hicksville, New York. Pooled plasma was obtained from at least three rats with K2EDTA as the anticoagulant. Control plasma was used to test the suitability of the system and for positive control analysis. Dulbecco’s phosphate-buffered saline (DPBS) (Millipore Sigma, St Louis, Missouri) was used to test the suitability of the system and as the receiver side of the dialysis device. […] The stock solution was added to the matrix (plasma or DPBS) and swirled to mix. The fortified matrix was then incubated at 37 °C for 15 min. Triplicate aliquots of the fortified matrix were analyzed by LSC.
The high throughput dialysis apparatus, model HTD96b, was used (HTDialysis LLC, Gales Ferry, Connecticut). Prior to assembly, dialysis membrane strips (molecular weight cutoff of 6–8 kDa) were hydrated, and the Teflon bars were assembled according to manufacturer’s instructions, with dialysis membrane strips laid between bars creating two compartments per well. The assembled unit was locked in place in the steel base plate. A 150 µL aliquot of each fortified matrix (tissue homogenates, plasma, or DPBS) and DPBS were added to the donor and receiver side of the HTD wells in a Teflon plate, respectively, and the plate was sealed. Samples were incubated at 37 °C and rotated at 300 rpm for 7 hours. After incubation, the seal was removed, and tissue homogenates, plasma, or DPBS and dialysate from each device insert were analyzed by LSC. All protein binding determinations were performed in triplicate.
Dialysis was performed accordingly. The radioactivity concentration of the test article in the donor and receiver samples was determined by LSC (count time 60 min) for the calculation of protein binding. […] After the designated time, aliquots of the individual donor and receiver samples were removed and analyzed by LSC. The remaining sample volume was stored at −20 °C.
Dialysis was performed accordingly.
Protein binding by equilibrium dialysis:1 PercentDrugBound=(Cm-Cd)/Cm×100 2 PercentDrugUnbound=100-PercentBound where: Cd, concentration of test article in dialysate at equilibrium; Cm, Concentration of test article in matrix at equilibrium.
Recovery from equilibrium dialysis:3 Recovery(%)=(Cm×Vm)+(Cd×Vd)/(Co×Vo)×100 where: Cm, Concentration of test article in matrix at equilibrium; Cd, Concentration of test article in dialysate at equilibrium; Co, Original concentration of test article in matrix prior to loading the dialysis device; Vm, Nominal volume of the matrix at equilibrium; Vd, Nominal volume of the dialysate at equilibrium; Vo, Nominal volume of the original matrix added to the dialysis device.

SMILES: Cc1ncsc1-c1ccc(C(C)NC(=O)C2CC(O)CN2C(=O)C(c2cc(N3CCC(CN4CCC(OC5CC(Oc6cc(N7C8CCC7CN(c7cc(-[14c]9[14cH][14cH][14cH][14cH][14c]9O)nnc7N)C8)ccn6)C5)CC4)CC3)no2)C(C)C)cc1 (stereo not drawn) [14C-A947]
- AUC0–∞ in plasma and blood [1]: ~ 18 µg h/g
- Cmax of radioactivity in blood [1]: 1.13 µg/g
- Cmax of radioactivity in plasma [1]: 1.22 µg/g
- Initial decrease of radioactivity in blood and plasma [1]: greater than 90%
- Radioactivity in plasma and blood at 336 hours [1]: 3 to 6 ng/g
- Terminal clearance (CL) [1]: ~ 5.8 mL/min/kg
- Terminal elimination half-life (t1/2) in plasma and blood [1]: 72 to 75 h
- Tmax in blood and plasma [1]: 15 min
- Volume of distribution (Vd) [1]: 23.9 L/kg
- Percent Bound [2]: 99.3%
- Percentage bound (mean), Control Plasma [2]: 99.2%
- Percentage bound (mean), Kidney [2]: 100%
- Percentage bound (mean), Liver [2]: 100%
- Percentage bound (mean), Lungs [2]: 99.5%
- Percentage bound (mean), Pancreas [2]: 100%
- Percentage bound (mean), Plasma (4 hour) [2]: 96.8%
- Percentage bound (mean), Plasma (24 hour) [2]: 98.2%
- Percentage bound (mean), Plasma (48 hour) [2]: 97.5%
- Percentage bound (mean), Prostate Gland [2]: 99.8%
- Percentage bound (mean), Spleen [2]: 99.1%
- Percentage bound (mean), Thymus [2]: 100%
- Fu ([2]; rat, plasma): 0.007
- Percentage unbound (mean), Control Plasma ([2]; rat, plasma): 0.795%
- Percentage unbound (mean), Plasma (4 hour) ([2]; rat, plasma): 0.548%
- Percentage unbound (mean), Plasma (24 hour) ([2]; rat, plasma): 0.595%
- Percentage unbound (mean), Plasma (48 hour) ([2]; rat, plasma): 0.863%
- Percentage unbound (mean), Liver ([2]; rat, tissue homogenate): 0.0298%
- Percentage unbound (mean), Lungs ([2]; rat, tissue homogenate): 0.09%
- Percentage unbound (mean), Pancreas ([2]; rat, tissue homogenate): 0.0125%
- Percentage unbound (mean), Thymus ([2]; rat, tissue homogenate): 0.0426%
